Experimental data: patent EP0994713B1, “USE OF A 7alpha-METHYL-17alpha-ETHYNYL-ESTRANE DERIVATIVE FOR THE TREATMENT OF ATHEROSCLEROSIS” (Akzo Nobel N.V., priority 1997, dated 1998)

How the values were obtained:
Assay type in all cases: in vivo, New Zealand White rabbits
[1] = Body weight at necropsy, cholesterol fed rabbit model; conditions: cholesterol diet, OVX, necropsy at 20 weeks
Procedure: (§1) The model is considered relevant to the human atherosclerotic process, because the cellular events occurring during the development of the atherosclerotic lesions during the atherogenic diet are similar to those observed in different stages of atherosclerotic processes in coronary arteries.
(§2) An experiment was performed with 7 groups of sexually mature, virgin female New Zealand White rabbits (Harlan, Zeist, The Netherlands), age 7-9 months and weighing approximately 3 kg (number of […] per group: 13-14). During the acclimatization period the rabbits were fed a diet of standard commercial rabbit chow LKK20 (Hope Farms, Woerden, The Netherlands). Three weeks prior to the start of the experiment the animals were anaesthetized and underwent bilateral ovariectomy (OVX) or were sham operated. After three weeks, at the start of the experiment, the rabbits were randomized over the treatment groups. In all animals de-endothelialisation of a segment of the left carotid artery was applied by using the air-drying technique (Fishman, J.A. et al., "Endothelial regeneration in the rat carotid artery and the significance of endothelial denudation in the pathogenesis of myointimal thickening", Lab. Invest. 1975, 32, 339-351; and Lafont, A. et al., "Restenosis and experimental angioplasty: Intimal, medial and adventitial changes associated with constructive remodeling", Circulation Research, 1995, 76, 996-1002)
(§3) The animals were randomly allocated into 7 experimental groups using a randomized block design. The groups were fed an atherogenic diet (commercial rabbit chow (LKK20) enriched with 0.4 grams cholesterol, 3.75 grams coconut oil and 3.75 grams peanut oil per 100 grams). One group was fed the standard rabbit chow (LKK20). Food intake was restricted to 80 grams daily.
(§4) The treatments (Table I) were daily administered orally as a tablet, prepared as in Example 1. Groups 1, 2 and 3 were on a daily placebo treatment. Groups 4-5 were treated with 7α-methyl-17α-ethynyl-17β-hydroxy-estra-5(10)-en-3-one (OD-14; tibolone; 6 or 2 mg daily); group 6 with 17β-estradiol (4 mg daily). Group 7 was on treatment with 17β-estradiol decanoate (150 µg in 1 ml arachis oil injected subcutaneously once a week).
(§5) During the experiment blood samples were drawn out of the central ear artery after sedation with Hypnorm (0.1 ml i.m.) (Janssen Pharmaceutics, Beerse, Belgium) before the daily treatment, at week 4,8,12,16 and 20, to monitor the plasma cholesterol levels and to measure, at week 17, plasma estradiol levels and plasma tibolone levels. Twenty weeks after the start of the experiment animals were anaesthetized by an i.m. injection of Hypnorm (0.5 ml/kg). After blood sampling the rabbits were killed by exsanguination and the aortic arch, uterus and carotid artery removed for further analyses.
(§6) In addition to example 2 an additional experiment was performed with two lower doses of Org OD14 and a higher dose of estradiol decanoate. […] The procedures were identical to those in example 2.
(§7) Three weeks prior to the start of the experiment the animals were ovariectomized. At the start of the experiment the carotid artery was de-endothelialised using the air-drying technique. The normal rabbit chow was replaced by the atherogenic diet except for the control group which received during the experiment the normal rabbit chow.
(§8) The treatments (table II) of group 1, 2, 3 and 4 were daily administered orally as a tablet, prepared as in example 1. The doses of Org OD14 per tablet, however, were 0.6 mg and 0.15 mg respectively. Group 5 was on treatment with 17β-estradiol decanoate (300 µg in 1 ml arachis oil injected subcutaneously once a week). Twenty weeks after the start of the experiment was ended in the same manner as described in example 2.
(§9) After 20 weeks of diet and of daily treatment, necropsy was performed to determine the accumulation of cholesterol and fatty streaks in the aortic arch and the advanced lesions in the carotid artery. […]

[2] = tested on: female ovariectomized rabbits; experiment: Uterus weight (estrogenic activity), cholesterol fed rabbit model; conditions: for Uterus weight per 100 grams body weight: cholesterol diet, OVX, necropsy at 20 weeks
Procedure: as §1, §2, §3, §4, §5, §6, §7, §8, §9

[3] = tested on: female ovariectomized rabbits; experiment: Plasma cholesterol levels, cholesterol fed rabbit model; conditions: for Mean plasma cholesterol exposure: cholesterol diet, OVX, 20 weeks; for plasma cholesterol levels (in words): Example 2: Org OD14 2 and 6 mg, E2 4 mg orally daily, E2D 150 µg s.c. weekly
Procedure: as §1
(§10) An experiment was performed with 7 groups of sexually mature, virgin female New Zealand White rabbits (Harlan, Zeist, The Netherlands), age 7-9 months and weighing approximately 3 kg (number of […] per group: 13-14). During the acclimatization period the rabbits were fed a diet of standard commercial rabbit chow LKK20 (Hope Farms, Woerden, The Netherlands). Three weeks prior to the start of the experiment the animals were anaesthetized and underwent bilateral ovariectomy (OVX) or were sham operated. After three weeks, at the start of the experiment, the rabbits were randomized over the treatment groups.
(§11) The animals were randomly allocated into 7 experimental groups using a randomized block design. […] One group was fed the standard rabbit chow (LKK20). Food intake was restricted to 80 grams daily.
as §4, with “Groups” for “The treatments (Table I) were daily administered orally as a tablet, prepared as in Example 1. Groups”
as §5, §7
(§12) Group 5 was on treatment with 17β-estradiol decanoate (300 µg in 1 ml arachis oil injected subcutaneously once a week).

[4] = tested on: female ovariectomized rabbits; experiment: Vessel wall cholesterol measurement in the aortic arch; conditions: for Cholesterol level in aortic arch: cholesterol diet, OVX, necropsy at 20 weeks
Procedure: as §1, §10, §11
as §4, with “Groups” for “The treatments (Table I) were daily administered orally as a tablet, prepared as in Example 1. Groups”
as §5, §7, §12
The amount of protein in the tissue was determined by the method of Lowry.

[5] = tested on: female ovariectomized rabbits; experiment: Fatty streaks in the aortic arch (Sudan Red, image analysis); conditions: cholesterol diet, OVX, necropsy at 20 weeks
Procedure: as §1, §2, §3, §4, §5, §6, §7, §8
The aortic arch was dissected free, opened longitudinally and fixed in 2% paraformaldehyde. The tissue was then stained for lipids using 0.3% (w/v) Sudan Red. Colour photographs were taken of all segments. […]

[6] = tested on: female ovariectomized rabbits; experiment: Intimal thickening (advanced lesions) in carotid artery after de-endothelialisation; conditions: for Advanced lesions in carotid artery: intimal surface: cholesterol diet, OVX, necropsy at 20 weeks; for advanced lesion formation following mechanical de-endothelisation (in words): Example 2: Org OD14 2 and 6 mg, E2 4 mg orally daily, E2D 150 µg s.c. weekly
Procedure: as §1, §2, §3, §4
as §5, with “analyses. […]” for “analyses.”
The left (airdried) carotid artery was dissected and fixed in 2% paraformaldehyde containing 6.8% glucose. The right carotid artery was used as comparison. After fixation the tissue was divided in blocks with a length of 2 mm and embedded in paraffin (Paraplast plus®, Sherwood Medical Co, St. Louis, USA) using an automated tissue processor (Hypercenter XP, Shandon).
To measure intimal thickening (using image analysis) a specific staining method and a belonging image analysis application have been developed.
Measurements were performed on 2 µm transverse sections which were treated with elastase (Serva Feinbiochemica Gmbh, Heidelberg, Germany) prior to elastin staining with Lawson solution (Boom, Meppel, the Netherlands) and light green (Sigma). Subsequently sections were airdried and mounted in Pertex (Leica Gmbh, Nussloch, Germany).
For morphological study both methylene blue/Azur II and hemotoxylin/eosin stained (2 µm) transverse sections were used. Smooth muscle cells and macrophages were detected with respectively α-actin antibodies (Sigma) and anti-macrophage antibodies (RAM11, DAKO, Glostrup, Denmark). […]

[7] = tested on: female ovariectomized rabbits; experiment: Overall atherosclerotic lesion formation, cholesterol fed rabbit model; conditions: Example 3: Org OD14 0.6 mg orally daily; estradiol decanoate 300 µg s.c. weekly
Procedure: as §1, §6, §7, §8
In example 3 we tested Org OD14 at two lower doses (0.6 and 0.15 mg orally once daily) and estradiol decanoate at a higher dose (300 µg s.c. once weekly). […]

[8] = Example 2, Group 7: 150 µg subcutaneously once a week
[9] = Example 3: 300 µg subcutaneously once weekly
[10] = Example 2, Group 6: 4 mg orally daily

## CCCCCCCCCC(=O)O[C@H]1CC[C@H]2[C@@H]3CCc4cc(O)ccc4[C@H]3CC[C@]12C [Estradiol decanoate, 17β-estradiol decanoate, reference compound]
[1]; [8]
  Body weight: 2973 ± 52 grams
[1]; [9]
  Body weight: 3093 ± 60 grams
[2]; [8]
  Uterus weight per 100 grams body weight: 0.37 ±0.04 per 100 grams body weight
[2]; Example 3, text: estradiol decanoate 300 µg s.c. once weekly, versus placebo 0.054
  increase of uterus weight: 835%
[2]; Example 3, text: estradiol decanoate 300 µg s.c. once weekly, placebo 0.054
  uterus weight: 0.505 grams per 100 grams body weigh
[2]; [9]
  Uterus weight per 100 grams body weight: 0.505 ±0.075 per 100 grams body weight
[3]; [8]
  Mean plasma cholesterol exposure: 30.0 ± 3.7 mmol/L/day
[3]
  plasma cholesterol levels (in words): did not affect plasma cholesterol levels
[3]; [9]
  Mean plasma cholesterol exposure: 23.0 ± 2.0 mmol/L/day
[4]; [8]
  Cholesterol level in aortic arch: 318 ± 58 nmol/mg protein
[4]; Example 2: 150 µg s.c. once a week, versus placebo
  reduction of cholesterol accumulation in the aortic arch: 46%
[4]; [9]
  Cholesterol level in aortic arch: 225 ± 69 nmol/mg protein
[5]; [8]
  Fatty streak in aortic arch: 28.1 ± 4.1 % of arcus covered
[5]; [9]
  Fatty streak in aortic arch: 14.2 ± 3.2 % of arcus covered
[6]; [8]
  Advanced lesions in carotid artery: intimal surface: 0.23 ± 0.06 * mm^2
[6]; Example 2, carotid artery, placebo on cholesterol diet: smooth muscle cells and foam cells
  Histology of the lesions: the lesions still consisted of smooth muscle cells and foam cells
[6]
  advanced lesion formation following mechanical de-endothelisation (in words): reduced advanced lesion formation
[6]; [9]
  Advanced lesions in carotid artery: intimal surface: 0.18 ± 0.02 * mm^2
[7]
  atherosclerotic lesion formation (in words): still only partially inhibited

## C[C@]12CC[C@@H]3c4ccc(O)cc4CC[C@H]3[C@@H]1CCC2O (stereo partly drawn) [Estradiol, estra-1,3,5 (10)-triene-3,17-diol, reference compound]
[2]; [10]
  Uterus weight per 100 grams body weight: 0.31 ±0.02 per 100 grams body weight
[3]; [10]
  Mean plasma cholesterol exposure: 27.7 ± 2.8 mmol/L/day
[3]
  plasma cholesterol levels (in words): did not affect plasma cholesterol levels
[4]; [10]
  Cholesterol level in aortic arch: 521 ± 99 nmol/mg protein
[4]; Example 2: Org OD14 2 and 6 mg, E2 4 mg orally daily
  cholesterol accumulation in the aortic arch (in words): did not lead to a reduction in cholesterol accumulation
[5]; [10]
  Fatty streak in aortic arch: 25.5 ± 5.2 % of arcus covered
[6]; [10]
  Advanced lesions in carotid artery: intimal surface: 0.30 ± 0.06 mm^2
[6]
  advanced lesion formation following mechanical de-endothelisation (in words): had no effect on advanced lesion formation
